Patent publication US9445999B2, “Process for preparing carrier particles for dry powders for inhalation” (CHIESI FARMACEUTICI S.p.A., priority 2010, dated 2016)

Legend:
[1] = Water contact angle by sessile drop (compressed powder disc method); extent of surface coating from the Cassie and Baxter equation; type: physicochemical; settings: 0.5% w/w MgSt carriers
Text: The extent to which magnesium stearate coats the surface of the lactose particles may be determined by first measuring the water contact angle, and then applying the equation known in the literature as Cassie and Baxter, cited at page 338 of Colombo I et al., Il Farmaco, 1984, 39(10), pp. 328-341, which is incorporated herein by reference in its entirety, and reported below. cos θmixture=fMgSt cos θMgst+flactore cos θlactose where
fMgst and flactore are the surface area fractions of magnesium stearate and of lactose;
θMgSt is the water contact angle of magnesium stearate;
θlactose is the water contact angle of lactose; and
θmixture are the experimental contact angle values. […]
If a fully automated procedure is not available, the base (b) and the height (h) of the drop are measured on the display using a mobile reading scale, then the water contact angles (WCA) are calculated by applying the following formula: WCA=[arctg2h/b]×2×180/[…]
Typically the values are calculated as a mean of three different measurements taken at room temperature. […]
The results are expresses as mean of three determinations. In Table 2, the water contact angle values and the corresponding extent of surface coating calculated from the Cassie and Baxter equation are also reported. […]

[2] = Particle size distribution (PSD) by laser diffraction with a Malvern apparatus; type: physicochemical; settings: lactose 90-150 microns + 0.5% w/w MgSt, CYCLOMIX at given speed and time; mean of three determinations
Text: In general terms, the particle size of the particles is quantified by measuring a characteristic equivalent sphere diameter, known as volume diameter, by laser diffraction.
In the present application, the particle size interval is expressed in terms of […]. Otherwise, the particle size distribution is expressed in terms of: i) the volume median diameter (VMD) which corresponds to the diameter of 50 percent by weight or volume respectively, of the particles, e.g. d(v0.5); and ii) the volume diameter (VD) in microns of 10% and 90% of the particles, respectively, e.g. d(v0.1) and d(v0.9).
iv) the particle size distribution (PSD) by laser diffraction with a Malvern apparatus; the water contact angle by the sessile drop method wherein the powder is in the form of a disc obtained by compaction (compressed powder disc method) according to the procedure reported above in the description;
The results are expresses as mean of three determinations. In Table 2, the water contact angle values and the corresponding extent of surface coating calculated from the Cassie and Baxter equation are also reported. Said equation was applied to the experimental values of the penultimate column of Table 2 using the reference values for magnesium state alone and alpha-lactose monohydrate alone. The variability in terms of S.D. of the experimental values is always less than ±10%, typically of ±5%.

## O.OC[C@H]1O[C@@H](O[C@H]2[C@H](O)[C@@H](O)[C@@H](O)O[C@@H]2CO)[C@H](O)[C@@H](O)[C@H]1O [α-lactose monohydrate, alpha-lactose monohydrate]
[1]; compressed powder disc, sessile drop
  Water Contact Angle: 8.35 E
[1]; calculated from the Cassie and Baxter equation
  Extent of Surface Coating: 0%
[2]
  PSD d(v0.1): 96.4
  PSD d(v0.5): 132.2
  PSD d(v0.9): 182.3
